Results as given in patent US4656165A, “Aminomethyl penem compounds” (priority 1983, dated 1987).

Assays:
Proteus rettgeri 856 = assay: Antibiotic activity in vitro (MIC); format: cell-based; conditions: Providencia rettgeri
[1] = tested on: Streptococcus pneumoniae III/84; assay: Antibiotic activity in vitro (MIC); format: cell-based
[2] = tested on: Staphylococcus aureus Wood 46; assay: Antibiotic activity in vitro (MIC); format: cell-based; conditions: WOOD46
[3] = tested on: Neisseria gonorrhoeae 1317/4; assay: Antibiotic activity in vitro (MIC); format: cell-based
[4] = target: T1, dehydropeptidase from human kidneys (Homo sapiens, UniProt P16444); assay: Stability towards the enzyme dehydropeptidase from human kidneys; format: in vitro ADME; conditions: for half-life: renal dehydropeptidase, enzyme dehydropeptidase from human kidneys, read-out: t1/2 (half-life period), stability towards dehydropeptidase (converted); for half-life period under the action of renal dehydropeptidase compared with compound B: comparison with the racemate compound B, in words
T1 construct: dehydropeptidase from human kidneys; from tissue; host or cells: human kidneys
T1 sequence (P16444 17-411): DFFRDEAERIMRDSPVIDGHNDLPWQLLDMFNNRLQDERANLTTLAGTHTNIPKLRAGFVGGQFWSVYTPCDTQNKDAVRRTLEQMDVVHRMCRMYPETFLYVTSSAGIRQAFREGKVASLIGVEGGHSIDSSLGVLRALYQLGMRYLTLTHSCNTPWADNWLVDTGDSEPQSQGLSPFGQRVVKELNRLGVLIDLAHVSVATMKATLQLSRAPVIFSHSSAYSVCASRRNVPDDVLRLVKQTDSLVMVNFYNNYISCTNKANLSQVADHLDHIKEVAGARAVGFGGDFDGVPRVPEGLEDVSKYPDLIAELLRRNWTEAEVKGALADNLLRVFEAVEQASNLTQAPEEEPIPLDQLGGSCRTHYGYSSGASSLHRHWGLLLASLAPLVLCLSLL
From the text: The stability of compounds A, B and C towards the enzyme dehydropeptidase from human kidneys is as follows (expressed in half-life periods t1/2): […]

Escherichia coli DC 2 = assay: Antibiotic activity in vitro (MIC); format: cell-based; conditions: DC2
[5] = tested on: Escherichia coli 205 R + TEM; assay: Antibiotic activity in vitro (MIC); format: cell-based; conditions: read-out: in vitro MIC
[6] = tested on: Staphylococcus aureus A 124; assay: Antibiotic activity in vitro (MIC); format: cell-based; conditions: A124
Proteus mirabilis 1219 = assay: Antibiotic activity in vitro (MIC); format: cell-based
Escherichia coli B-1385 = assay: Antibiotic activity in vitro (MIC); format: cell-based; conditions: B1385
Clostridium perfringens = assay: microbe, parasite or virus in culture; format: cell-based; conditions: read-out: in vitro MIC
Proteus mirabilis 774 = assay: Antibiotic activity in vitro (MIC); format: cell-based
[7] = tested on: Klebsiella pneumoniae 327; assay: Antibiotic activity in vitro (MIC); format: cell-based
[8] = tested on: Staphylococcus aureus 2999i+p+; assay: Antibiotic activity in vitro (MIC); format: cell-based
Serratia marcescens 344 = assay: Antibiotic activity in vitro (MIC); format: cell-based
[9] = tested on: Pseudomonas aeruginosa K 799/61; assay: Antibiotic activity in vitro (MIC); format: cell-based; conditions: K799/61, read-out: in vitro MIC
[10] = tested on: Haemophilus influenzae NCTC 4560; assay: Antibiotic activity in vitro (MIC); format: cell-based; conditions: NCTC4560
[11] = tested on: Streptococcus pyogenes Aronson 1129; assay: Antibiotic activity in vitro (MIC); format: cell-based; conditions: ARONSON1129
[12] = tested on: Staphylococcus aureus 10 B; assay: Antibiotic activity in vitro (MIC); format: cell-based
Escherichia coli 2018 = assay: Antibiotic activity in vitro (MIC); format: cell-based
Escherichia coli 16 = assay: Antibiotic activity in vitro (MIC); format: cell-based
[13] = tested on: Pseudomonas aeruginosa ATCC 12055; assay: Antibiotic activity in vitro (MIC); format: cell-based; conditions: ATCC12055
[14] = tested on: Enterobacter cloacae ATCC 13047; assay: Antibiotic activity in vitro (MIC); format: cell-based; conditions: ATCC13047
Proteus morganii 1518 = assay: Antibiotic activity in vitro (MIC); format: cell-based; conditions: Morganella morganii
[15] = tested on: Pseudomonas aeruginosa 143738R; assay: Antibiotic activity in vitro (MIC); format: cell-based
[16] = tested on: Bacteroides fragilis L 01; assay: Antibiotic activity in vitro (MIC); format: cell-based; conditions: L01
Proteus morganii 2359 = assay: Antibiotic activity in vitro (MIC); format: cell-based; conditions: Morganella morganii
Escherichia coli UB 1005 = assay: Antibiotic activity in vitro (MIC); format: cell-based; conditions: UB1005
[17] = tested on: Neisseria meningitidis 1316; assay: Antibiotic activity in vitro (MIC); format: cell-based
[18] = tested on: Enterobacter cloacae P 99; assay: Antibiotic activity in vitro (MIC); format: cell-based; conditions: P99, read-out: in vitro MIC
Escherichia coli 205 = assay: Antibiotic activity in vitro (MIC); format: cell-based

C[C@@H](O)[C@H]1C(=O)N2C(C(=O)O)=C(CN)S[C@H]12 (relative stereo) [compound B, (1'R,5R,6S+1'S,5S,6R)-2-aminomethyl-6-(1'hydroxyethyl) -2-penem-3-carboxylic acid, reference compound]
0.2 µg/mL: MIC [1] | MIC [6] | MIC [8] | MIC [9]
4 µg/mL: MIC (Clostridium perfringens) | MIC (Proteus mirabilis 774) | MIC [7] | MIC (Escherichia coli 2018) | MIC (Proteus morganii 1518)
0.5 µg/mL: MIC [11]
8 µg/mL: MIC [5] | MIC (Proteus mirabilis 1219) | MIC (Escherichia coli B-1385) | MIC (Serratia marcescens 344) | MIC (Escherichia coli 16) | MIC [18] | MIC (Escherichia coli 205)
1 µg/mL: MIC (Proteus rettgeri 856) | MIC [3] | MIC [16] | MIC [17]
0.1 µg/mL: MIC [2] | MIC [12] | MIC [13]
2.2 h: half-life [4]
2 µg/mL: MIC [10] | MIC [15] | MIC (Proteus morganii 2359)
16 µg/mL: MIC (Escherichia coli DC 2) | MIC [14] | MIC (Escherichia coli UB 1005)

C[C@@H](O)[C@H]1C(=O)N2C(C(=O)O)=C(CN)S[C@H]12 [compound A, (5R,6S)-2-aminomethyl-6-[(1'R)-1-hydroxyethyl]-2-penem-3-carboxylic acid]
4 µg/mL: MIC [5] | MIC (Escherichia coli B-1385) | MIC (Serratia marcescens 344) | MIC (Escherichia coli 16) | MIC [14] | MIC (Escherichia coli UB 1005) | MIC [18]
considerably greater half-life period: half-life period under the action of renal dehydropeptidase compared with compound B [4]
0.2 µg/mL: MIC [11]
2 µg/mL: MIC (Proteus mirabilis 1219) | MIC (Clostridium perfringens) | MIC [7] | MIC (Escherichia coli 2018) | MIC (Proteus morganii 1518) | MIC (Escherichia coli 205)
1 µg/mL: MIC (Proteus mirabilis 774) | MIC [10]
8 µg/mL: MIC (Escherichia coli DC 2)
0.1 µg/mL: MIC [1] | MIC [6] | MIC [9]
0.05 µg/mL: MIC [2] | MIC [8] | MIC [12] | MIC [13]
0.5 µg/mL: MIC (Proteus rettgeri 856) | MIC [3] | MIC [15] | MIC [16] | MIC (Proteus morganii 2359) | MIC [17]

NCC1=C(C(=O)O)N2C(=O)[C@H](CO)[C@H]2S1 [compound C, (5R,6S)-2-aminomethyl-6-hydroxymethyl-2-penem-3-carboxylic acid]
2 µg/mL: MIC [5] | MIC (Escherichia coli B-1385) | MIC (Serratia marcescens 344) | MIC [11] | MIC (Escherichia coli 16) | MIC (Proteus morganii 1518) | MIC [15] | MIC [16] | MIC (Escherichia coli UB 1005)
32 µg/mL: MIC (Clostridium perfringens)
0.5 µg/mL: MIC (Proteus rettgeri 856) | MIC [1] | MIC [8] | MIC [9]
0.2 µg/mL: MIC [2] | MIC [12] | MIC [13]
5.5 h: half-life [4]
1 µg/mL: MIC [3] | MIC [6] | MIC (Proteus mirabilis 774) | MIC [7] | MIC [10] | MIC (Escherichia coli 2018) | MIC (Proteus morganii 2359) | MIC [17] | MIC (Escherichia coli 205)
4 µg/mL: MIC (Escherichia coli DC 2) | MIC (Proteus mirabilis 1219) | MIC [14] | MIC [18]
considerably greater half-life period: half-life period under the action of renal dehydropeptidase compared with compound B [4]
